The EC50 is the concentration needed to bring the measured effect to its halfway point.

Assay [1] deals with Cardiac fibroblast. Put plainly: Anti-myocardial fibrosis activity against cardiac fibroblasts (unknown origin) assessed as reduction in CDK4 protein expression at 30 uM measured after 24 hrs by western blot analysis. The class given is functional, tissue-based. (In general: A western blot detects proteins with antibodies after separation by electrophoresis.)
The subject of assay [2] is Cardiac fibroblast. Put plainly: Anti-myocardial fibrosis activity against cardiac fibroblasts (unknown origin) assessed as reduction in collagen synthesis by measuring reduction in type1 collagen protein expression at 30 uM measured after 24 hrs by western blot analysis. The class given is functional.
For assay [3], the system named is Cardiac fibroblast. Put plainly: Anti-myocardial fibrosis activity against cardiac fibroblasts (unknown origin) assessed as reduction in collagen synthesis by measuring reduction in type3 collagen protein expression at 30 uM measured after 24 hrs by western blot analysis. The class given is functional.
Assay [4] deals with Cardiac fibroblast. Description: Anti-myocardial fibrosis activity against cardiac fibroblasts (unknown origin) assessed as inhibition of cell proliferation at 30 uM measured after 24 hrs by EdU incorporation based assay. It is filed as functional, tissue-based.
Assay [5] has as its system Cardiac fibroblast. Description: Anti-myocardial fibrosis activity against cardiac fibroblasts (unknown origin) assessed as reduction in cyclinD1 protein expression at 30 uM measured after 24 hrs by western blot analysis. It is filed as functional, tissue-based.
In assay [6] the test system is Cardiac fibroblast. Description: Anti-myocardial fibrosis activity against cardiac fibroblasts (unknown origin) assessed as inhibition of cell viability at 30 uM measured after 24 hrs by MTT assay. It is filed as functional, tissue-based. (Tetrazolium dyes change colour on reduction, which living cells bring about.)
The test system of assay [7] is Cardiac fibroblast. Description: Anti-myocardial fibrosis activity against cardiac fibroblasts (unknown origin) assessed as inhibition of cell proliferation measured after 24 hrs in presence of ALDH2 inhibitor, daidzin by EdU incorporation based analysis. The class given is functional, tissue-based.
The subject of assay [8] is Cardiac fibroblast. Put plainly: Anti-myocardial fibrosis activity against cardiac fibroblasts (unknown origin) assessed as reduction in CDK4 protein expression measured after 24 hrs by western blot analysis. It is filed as functional, tissue-based. The settings on record: dose 5-20 µM.
The subject of assay [9] is Cardiac fibroblast. Put plainly: Effect on Bcl2 protein expression in cardiac fibroblasts (unknown origin) measured after 24 hrs in presence of ALDH2 inhibitor, daidzin by western blot analysis. The class given is functional, tissue-based.
Assay [10] deals with Cardiac fibroblast. Put plainly: Anti-myocardial fibrosis activity against cardiac fibroblasts (unknown origin) assessed as reduction in CDK4 protein expression measured after 24 hrs in presence of ALDH2 inhibitor, daidzin by western blot analysis. It is filed as functional, tissue-based.
In assay [11] the test system is Cardiac fibroblast. Put plainly: Anti-myocardial fibrosis activity against cardiac fibroblasts (unknown origin) assessed as inhibition of cell viability measured after 24 hrs by MTT assay. The settings on record: dose 5-20 µM. It is filed as functional, tissue-based.
Assay [12] deals with T1, Aldehyde dehydrogenase, mitochondrial (Homo sapiens, UniProt P05091).
T1 sequence (P05091 whole entry): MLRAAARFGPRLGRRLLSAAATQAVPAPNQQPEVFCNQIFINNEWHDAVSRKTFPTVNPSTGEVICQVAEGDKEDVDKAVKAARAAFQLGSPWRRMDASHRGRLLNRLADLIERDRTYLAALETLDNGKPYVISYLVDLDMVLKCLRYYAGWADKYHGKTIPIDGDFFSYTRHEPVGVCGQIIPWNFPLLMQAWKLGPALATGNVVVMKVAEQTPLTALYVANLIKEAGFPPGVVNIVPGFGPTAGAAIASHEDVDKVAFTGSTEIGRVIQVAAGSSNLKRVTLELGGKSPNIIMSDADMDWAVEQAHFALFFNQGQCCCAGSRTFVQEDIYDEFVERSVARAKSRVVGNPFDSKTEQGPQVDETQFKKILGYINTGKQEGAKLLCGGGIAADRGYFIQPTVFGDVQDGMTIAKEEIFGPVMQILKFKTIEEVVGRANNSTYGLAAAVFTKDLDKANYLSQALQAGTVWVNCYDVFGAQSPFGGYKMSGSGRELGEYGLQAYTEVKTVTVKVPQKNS
Put plainly: (§1) Agonist activity at human recombinant ALDH2 measured after 1 hr.

Assay [13] has as its target T2, Aldehyde dehydrogenase, mitochondrial (Homo sapiens) (UniProt P05091).
T2 sequence (whole entry): T1 sequence (P05091 whole entry)
The assay is described as §1. The settings on record: filed as agonist.

Assay [14] deals with Cardiac fibroblast. Put plainly: Anti-myocardial fibrosis activity against cardiac fibroblasts (unknown origin) assessed as reduction in cyclinD1 protein expression measured after 24 hrs in presence of ALDH2 inhibitor, daidzin by western blot analysis. The class given is functional, tissue-based.
Assay [15] relates to Cardiac fibroblast. Put plainly: Effect on Bax protein expression in cardiac fibroblasts (unknown origin) measured after 24 hrs in presence of ALDH2 inhibitor, daidzin by western blot analysis. The class given is functional, tissue-based.
Assay [16] relates to Cardiac fibroblast. Put plainly: Anti-myocardial fibrosis activity against cardiac fibroblasts (unknown origin) assessed as reduction in collagen synthesis by measuring reduction in type3 collagen protein expression measured after 24 hrs by western blot analysis. The class given is functional. The settings on record: dose 5-20 µM.
Assay [17] concerns Cardiac fibroblast. Description: Anti-myocardial fibrosis activity against cardiac fibroblasts (unknown origin) assessed as inhibition of cell viability at 20 uM measured for 120 hrs by MTT assay. The class given is functional, tissue-based.
Assay [18] relates to Cardiac fibroblast. Description: Effect on ALDH2 expression in cardiac fibroblasts (unknown origin) at 5 to 20 uM measured after 24 hrs by western blot analysis. The class given is functional, tissue-based. The settings on record: dose 5-20 µM.
In assay [19] the test system is Cardiac fibroblast. Description: Effect on Bax protein expression in cardiac fibroblasts (unknown origin) at 5 to 20 uM incubated for 24 hrs by western blot analysis. The class given is functional, tissue-based. The settings on record: dose 5-20 µM.
Assay [20] has as its system Cardiac fibroblast. Description: Anti-myocardial fibrosis activity against cardiac fibroblasts (unknown origin) assessed as inhibition of cell viability measured after 24 hrs in presence of ALDH2 inhibitor, daidzin by MTT assay. The class given is functional, tissue-based.
Assay [21] deals with T2, Aldehyde dehydrogenase, mitochondrial (Homo sapiens). Description: Binding affinity to ALDH2 (unknown origin) by surface plasmon resonance analysis. The settings on record: filed as agonist. In general terms: SPR reads the build-up and loss of mass on a sensor chip optically.
For assay [22], the system named is Cardiac fibroblast. Description: Anti-myocardial fibrosis activity against cardiac fibroblasts (unknown origin) assessed as reduction in cyclinD1 protein expression measured after 24 hrs by western blot analysis. The class given is functional, tissue-based. The settings on record: dose 5-20 µM.
Assay [23] deals with Cardiac fibroblast. Description: Effect on Bcl2 protein expression in cardiac fibroblasts (unknown origin) at 5 to 20 uM incubated for 24 hrs by western blot analysis. The settings on record: dose 5-20 µM. It is filed as functional, tissue-based.
In assay [24] the test system is Cardiac fibroblast. Description: Anti-myocardial fibrosis activity against cardiac fibroblasts (unknown origin) assessed as reduction in collagen synthesis by measuring reduction in type3 collagen protein expression measured after 24 hrs in presence of ALDH2 inhibitor, daidzin by western blot analysis. It is filed as functional, tissue-based.
In assay [25] the test system is Cardiac fibroblast. Put plainly: Anti-myocardial fibrosis activity against cardiac fibroblasts (unknown origin) assessed as reduction in collagen synthesis by measuring reduction in type1 collagen protein expression measured after 24 hrs in presence of ALDH2 inhibitor, daidzin by western blot analysis. It is filed as functional, tissue-based.
Assay [26] has as its system Cardiac fibroblast. Put plainly: Anti-myocardial fibrosis activity against cardiac fibroblasts (unknown origin) assessed as reduction in collagen synthesis by measuring reduction in type1 collagen protein expression measured after 24 hrs by western blot analysis. It is filed as functional, tissue-based. The settings on record: dose 5-20 µM.
For assay [27], the system named is Cardiac fibroblast. Put plainly: Anti-myocardial fibrosis activity against cardiac fibroblasts (unknown origin) assessed as inhibition of cell proliferation measured after 24 hrs by EdU incorporation based assay. The class given is functional, tissue-based. The settings on record: dose 5-20 µM.
The target of assay [28] is T2, Aldehyde dehydrogenase, mitochondrial (Homo sapiens). Put plainly: Agonist activity at ALDH2 in cardiac fibroblasts (unknown origin) measured after 24 hrs by ELISA. It is filed as tissue-based. The settings on record: Cardiac fibroblast, filed as agonist, dose 5-20 µM.

Each structure is given as a SMILES string. Calls of active or inactive are those of the source. The rule behind the calls is not given here.

Turning to `O=C(NCc1ccc2c(c1)OCO2)c1c(Cl)cccc1Cl`, the result in [1], in assay [2], in [3], in [4], in [5] and in assay [6] was Active.
On to `C=CCc1ccc(O)c(-c2cc(CC=C)ccc2O)c1` [MAGNOLOL], for which the outcome in assay [7], in assay [9], in [10], in assay [14], in [15] and in assay [18] was inactive. Further, the outcome in assay [19], in assay [20], in assay [23], in [24] and in assay [25] was inactive. Also, the Activity entry in [8] was “Dose-Dependent Effect”; in assay [11], “Dose-Dependent Effect”; in assay [13] it was “Dose-Dependent Effect”; in assay [16] it was “Dose-Dependent Effect”; in assay [21] it was 7.07 10^-6M; in [22], “Dose-Dependent Effect”. Further, the Activity entry in assay [26], in assay [27] and in assay [28] was “Dose-Dependent Effect” throughout. Further, the EC50 in [12] is 57.9 µM. Further, the result in assay [17] was Active.

The values are drawn from ChEMBL document CHEMBL4819089, “Magnolol, a natural aldehyde dehydrogenase-2 agonist, inhibits the proliferation and collagen synthesis of cardiac fibroblasts” (Bioorg Med Chem Lett, 2021).
